Test results taken from US20220064167A1, “IMIDAZO-PYRAZOLE CARBOXAMIDE DERIVATIVES AS ANTICANCER AGENTS AND THE SYNTHESIS THEREOF” (AVIDIN KFT., priority 2018, published 2022).
pIC50: −log10 of the molar value.

Columns and labels:
Experiment in all cases: viability assay (Table 3)
Type in all cases: cell-based
[1] = system: HL-60 (acute promyelocytic leukemia); conditions: Homo sapiens, 20000 cells/well, 10 μM-0.2 nM
Method: (§1) For viability assays cells were seeded in 96 well plates (MCF7 and 4T1: 6000, HL60: 120.000 cells/well) and incubated overnight. Compounds were dissolved in dimethyl sulfoxide (DMSO). Cells were treated with an increasing concentration of compounds having the general formula (I.) (156 nM-100 μM). Cell viability was determined after 72h incubation. Resazurin reagent (Sigma-Aldrich) was dissolved in PBS (pH 7.4) at 0.15 mg/ml concentration, sterile filtered (0.22 μm, Merck Millipore) and aliquoted at −20° C. Resazurin reagent (Sigma-Aldrich) was added at a final concentration of 25 μg/ml. After 2 hours incubation at 37° C. 5% CO2 fluorescence (530 nm excitation/580 nm emission) was recorded on a multimode microplate reader (Cytofluor4000, PerSeptive Biosytems). Viability was calculated with relation to untreated control cells and blank wells containing media without cells. IC50 values (50% inhibiting concentration) were calculated by GraphPad Prism® 5 (La Jolla, Calif., USA).
(§2) Cancer cell lines were purchased from the American Type Culture Collection (ATCC, Manassas, Va., USA). HT29 (human colorectal adenocarcinoma), HL-60 (acute promyelocytic leukemia), THP-1 (acute monocytic leukemia), MOLT-4 (acute T-lymphoblastic leukemia), MV-4-11 (biphenotypic B myelomonocytic leukemia) and K-562 (erythroleukemia) cells were maintained in Roswell Park Memorial Institute 1640 medium (RPMI-1640) with 10% FCS. Media were supplemented with 2 mM GlutaMAX, and 100 U/mL penicillin, 100 μg/mL streptomycin (Life Technologies, Carlsbad, Calif., USA). Cell cultures were maintained at 37° C. in a humidified incubator in an atmosphere of 5% CO2 (Sanyo, Japan).
(§3) Viability assays were performed as described in Example 102 with minor modification for cell density and tested concentration range. Applied cell densities: in case of human primary fibroblast 6000, for HT29 4000, for HL-60, MOLT-4, MV-4-11, THP-1, K-562 20000 cells/well. Applied compound concentration range: 10 μM-0.2 nM.

[2] = system: HT29 (human colorectal adenocarcinoma); conditions: HT-29, 4000 cells/well, 10 μM-0.2 nM
Method: as §1, §2, §3

[3] = system: K-562 (erythroleukemia); conditions: Homo sapiens, K562; 20000 cells/well, 10 μM-0.2 nM
Method: as §1, §2, §3

[4] = system: MOLT-4 (acute T-lymphoblastic leukemia); conditions: Homo sapiens, 20000 cells/well, 10 μM-0.2 nM
Method: as §1, §2, §3

[5] = system: MV-4-11 (biphenotypic B myelomonocytic leukemia); conditions: Homo sapiens, MV4-11; 20000 cells/well, 10 μM-0.2 nM
Method: as §1, §2, §3

[6] = system: THP-1 (acute monocytic leukemia); conditions: Homo sapiens, 20000 cells/well, 10 μM-0.2 nM
Method: as §1, §2, §3

[7] = system: human primary fibroblast; conditions: 6000 cells/well, 10 μM-0.2 nM
Method: as §1
Human primary fibroblasts were obtained from the skin by enzymatic digestion according to a standard protocol. Fibroblasts were grown in low glucose DMEM/F12 medium containing 15% FCS, 1% antibiotic/antimycotic (PAA, Pasching, Austria) and 1% L-glutamine solution (PAA). Fibroblasts were cultured at 37° C. and 5% CO2 in humidified conditions. […]

- pIC50 [1]: 7.78
- pIC50 [2]: 8.00
- pIC50 [3]: 7.27
- pIC50 [4]: 7.56
- pIC50 [5]: 7.49
- pIC50 [6]: 7.59
SMILES: CC(C)(C)Nc1c(C(C)(C)C)[nH]c2c(C(=O)Nc3ccc(O)cc3)cnn12 [Example 90, 2-(Tert-butyl)-3-(tert-butylamino)-N-(4-hydroxyphenyl)-1H-imidazo[1,2-b]pyrazole-7-carboxamide]
- pIC50 [7]: < 5.52
